The values below are quoted from earlier work in US20120178114A1, “METHODS AND DEVICES FOR DETECTING THROMBIN GENERATION” (SUBC, INC., priority 2007, published 2012).

This data set concerns the target thrombin (Homo sapiens, UniProt P00734). The conditions noted are these: BAEE as thrombin substrate.

The Km is the substrate concentration at which the rate is half of its maximum. Usually kcat stands for the maximal rate divided by the concentration of active sites. In the case of `CCOC(=O)[C@H](CCCNC(=N)N)NC(=O)c1ccccc1` [BAEE, benzoylarginine ethyl ester], the Km was 100 µM and the kcat is 50 s⁻¹.
